Measurements from ChEMBL document CHEMBL1201862, “PubChem BioAssay data set” (2004).
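Interpolation was linear, between the two tested concentrations surrounding the appropriate level; five concentrations were tested over 48 hours in 96-well plates. At the GI50, growth is halved.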 Calls of active or inactive are those of the source. Cut-off read from the data, not from the text of the source: active = GI50 up to about 1.1 µM and inactive = higher. Starred links: 1 amine or outer side, 2 acyl side, 3 side chain; linkers in the order of their positions; H or OH if unused. Positions of bridges follow the written chain, without caps; N, C: chain ends. Non-standard residues stand in square brackets, D forms with d. Residues, ends and D or L forms follow the SMILES beside them. ξ: configuration not given here. X37 = CC[C@H](C)[C@@H](N[*:1])[C@@H](O)CC(=O)O[C@H](C(=O)[C@H](C)C(=O)[*:2])C(C)C; NMeY = CN[C@@H](Cc1ccc(O)cc1)C(=O)O; dNMeL = CN[C@H](CC(C)C)C(=O)O; ξΔPro = O=C(O)C1C=CCN1

Legend:
Assay in all cases: NCI tumour cell line growth inhibition, 48 h
786-0 = tested on: 786-0
ACHN = tested on: ACHN
CAKI-1 = tested on: CAKI-1
DU-145 = tested on: DU-145
EKVX = tested on: EKVX
HL-60 = tested on: HL-60
HOP-62 = tested on: HOP-62
IGROV-1 = tested on: IGROV-1
KM12 = tested on: KM12
LOX IMVI = tested on: LOX IMVI
MDA-N = tested on: MDA-N
MOLT-4 = tested on: MOLT-4
Malme-3M = tested on: Malme-3M
OVCAR-3 = tested on: OVCAR-3
PC-3 = tested on: PC-3
SF-539 = tested on: SF-539
SK-MEL-5 = tested on: SK-MEL-5
SK-OV-3 = tested on: SK-OV-3
UACC-257 = tested on: UACC-257
UO-31 = tested on: UO-31

Row | Structure (SMILES) | GI50 (786-0) | GI50 (ACHN) | GI50 (CAKI-1) | GI50 (DU-145) | GI50 (EKVX) | GI50 (HL-60) | GI50 (HOP-62) | GI50 (IGROV-1) | GI50 (KM12) | GI50 (LOX IMVI) | GI50 (MDA-N) | GI50 (MOLT-4) | GI50 (Malme-3M) | GI50 (OVCAR-3) | GI50 (PC-3) | GI50 (SF-539) | GI50 (SK-MEL-5) | GI50 (SK-OV-3) | GI50 (UACC-257) | GI50 (UO-31)
1 | N=c1oc2ccc([N+](=O)[O-])cc2cc1C(=O)Nc1ccccn1 | 19.2 µM (inactive) | 35.5 µM (inactive) | > 100 µM (inactive) | 60.4 µM (inactive) | 34.6 µM (inactive) | 49.4 µM (inactive) | 25.3 µM (inactive) | 31.7 µM (inactive) | 34.3 µM (inactive) | 33.5 µM (inactive) | 49.2 µM (inactive) | > 100 µM (inactive) | 21.7 µM (inactive) | 20.6 µM (inactive) | 12.9 µM (inactive) | 26.2 µM (inactive) | 93.5 µM (inactive) | > 100 µM (inactive) | > 100 µM (inactive) | –
2 | C=C1CC2C[C@H](OS(=O)(=O)c3ccc(C)cc3)C(C1)N2C (stereo partly specified) | > 100 µM (inactive) | – | > 100 µM (inactive) | > 100 µM (inactive) | > 100 µM (inactive) | > 100 µM (inactive) | > 100 µM (inactive) | > 100 µM (inactive) | > 100 µM (inactive) | > 100 µM (inactive) | > 100 µM (inactive) | > 100 µM (inactive) | > 100 µM (inactive) | > 100 µM (inactive) | > 100 µM (inactive) | > 100 µM (inactive) | > 100 µM (inactive) | > 100 µM (inactive) | > 100 µM (inactive) | > 100 µM (inactive)
3 | O=C1CC(c2ccccc2)C2(C(=O)NC(=S)NC2=O)C(c2ccccc2)C1 (stereo unspecified) | > 75 µM (inactive) | > 75 µM (inactive) | > 75 µM (inactive) | > 75 µM (inactive) | > 75 µM (inactive) | 41.3 µM (inactive) | > 75 µM (inactive) | > 75 µM (inactive) | > 75 µM (inactive) | > 75 µM (inactive) | > 75 µM (inactive) | 27.3 µM (inactive) | > 75 µM (inactive) | > 75 µM (inactive) | > 75 µM (inactive) | > 75 µM (inactive) | > 75 µM (inactive) | – | > 75 µM (inactive) | > 75 µM (inactive)
4 | O=C(Cn1ccc(=O)[nH]c1=O)Nc1ccc(C(=O)O)c(O)c1 | > 100 µM (inactive) | > 100 µM (inactive) | > 100 µM (inactive) | > 100 µM (inactive) | > 100 µM (inactive) | > 100 µM (inactive) | 26.2 µM (inactive) | > 100 µM (inactive) | > 100 µM (inactive) | > 100 µM (inactive) | > 100 µM (inactive) | > 100 µM (inactive) | > 100 µM (inactive) | > 100 µM (inactive) | > 100 µM (inactive) | – | > 100 µM (inactive) | < 0.01 µM (active) | > 100 µM (inactive) | > 100 µM (inactive)
5 | NCCCn1c(Cl)nc2ccccc21 | > 100 µM (inactive) | > 100 µM (inactive) | > 100 µM (inactive) | > 100 µM (inactive) | > 100 µM (inactive) | > 100 µM (inactive) | > 100 µM (inactive) | > 100 µM (inactive) | > 100 µM (inactive) | > 100 µM (inactive) | > 100 µM (inactive) | > 100 µM (inactive) | > 100 µM (inactive) | > 100 µM (inactive) | > 100 µM (inactive) | – | > 100 µM (inactive) | > 100 µM (inactive) | – | > 100 µM (inactive)
6 | CC1C(OC2O[C@@H]3O[C@@]4(C)CC[C@H]5[C@H](C)CC[C@@H](C2C)[C@@]35O4)O[C@@H]2O[C@@]3(C)CC[C@H]4[C@H](C)CC[C@@H]1[C@@]24O3 (stereo partly specified) | > 50 µM (inactive) | 1.65 µM (inactive) | > 50 µM (inactive) | > 50 µM (inactive) | > 50 µM (inactive) | > 50 µM (inactive) | > 50 µM (inactive) | – | > 50 µM (inactive) | > 50 µM (inactive) | > 50 µM (inactive) | > 50 µM (inactive) | > 50 µM (inactive) | > 50 µM (inactive) | > 50 µM (inactive) | > 50 µM (inactive) | > 50 µM (inactive) | > 50 µM (inactive) | > 50 µM (inactive) | –
7 | NC(CSCc1ccccc1)C(=O)O (stereo unspecified) | > 100 µM (inactive) | > 100 µM (inactive) | > 100 µM (inactive) | > 100 µM (inactive) | > 100 µM (inactive) | > 100 µM (inactive) | > 100 µM (inactive) | > 100 µM (inactive) | > 100 µM (inactive) | > 100 µM (inactive) | > 100 µM (inactive) | – | > 100 µM (inactive) | > 100 µM (inactive) | > 100 µM (inactive) | – | > 100 µM (inactive) | > 100 µM (inactive) | > 100 µM (inactive) | > 100 µM (inactive)
8 | COc1cccc(C=C2N=C(c3ccccc3)N(n3c(-c4ccccc4)nc4ccccc4c3=O)C2=O)c1 | 83.4 µM (inactive) | 42.3 µM (inactive) | 41.2 µM (inactive) | 83.8 µM (inactive) | 43.6 µM (inactive) | 25.1 µM (inactive) | 85.1 µM (inactive) | 30.1 µM (inactive) | 37.9 µM (inactive) | 62.5 µM (inactive) | 48.3 µM (inactive) | 30.3 µM (inactive) | > 100 µM (inactive) | – | 41.2 µM (inactive) | 43.2 µM (inactive) | 34.8 µM (inactive) | > 100 µM (inactive) | 30.3 µM (inactive) | 40.1 µM (inactive)
9 | O=C1CSC(/C=C/c2ccccc2)N1c1ccc(-c2ccc(-n3c(-c4ccccc4)nc4ccccc4c3=O)cc2)cc1 (stereo unspecified) | 13.4 µM (inactive) | 23.6 µM (inactive) | 33.7 µM (inactive) | 24.7 µM (inactive) | 15.5 µM (inactive) | 28.8 µM (inactive) | 28.5 µM (inactive) | 20.1 µM (inactive) | 17.3 µM (inactive) | 15.8 µM (inactive) | 23.4 µM (inactive) | 15.7 µM (inactive) | 23.1 µM (inactive) | 21.2 µM (inactive) | 22.2 µM (inactive) | – | 13.8 µM (inactive) | 51.8 µM (inactive) | 30.3 µM (inactive) | 14.2 µM (inactive)
10 | O=[N+]([O-])C1(C2([N+](=O)[O-])CCCC2)CCCC1 | > 100 µM (inactive) | – | > 100 µM (inactive) | > 100 µM (inactive) | > 100 µM (inactive) | > 100 µM (inactive) | – | > 100 µM (inactive) | > 100 µM (inactive) | > 100 µM (inactive) | > 100 µM (inactive) | > 100 µM (inactive) | > 100 µM (inactive) | > 100 µM (inactive) | > 100 µM (inactive) | > 100 µM (inactive) | > 100 µM (inactive) | > 100 µM (inactive) | > 100 µM (inactive) | 57.1 µM (inactive)
11 | O=c1[nH]n(Cc2ccccc2Cl)c2ccccc12 | > 100 µM (inactive) | > 100 µM (inactive) | > 100 µM (inactive) | > 100 µM (inactive) | > 100 µM (inactive) | > 100 µM (inactive) | > 100 µM (inactive) | > 100 µM (inactive) | > 100 µM (inactive) | > 100 µM (inactive) | > 100 µM (inactive) | > 100 µM (inactive) | > 100 µM (inactive) | 73.1 µM (inactive) | > 100 µM (inactive) | > 100 µM (inactive) | > 100 µM (inactive) | – | 38.9 µM (inactive) | > 100 µM (inactive)
12 | CC[C@H](C)[C@H]1NC(=O)[C@@H](NC(=O)[C@@H](CC(C)C)N(C)C(=O)C2C=CCN2)[C@@H](C)OC(=O)[C@H](Cc2ccc(OC)cc2)N(C)C(=O)[C@@H]2CCCN2C(=O)[C@H](CC(C)C)NC(=O)[C@@H](C)C(=O)[C@H](C(C)C)OC(=O)C[C@@H]1O (stereo partly specified) (H-[ξΔPro][dNMeL]T[X37]LP[NMeY](Me); ester 3-C) | < 0.005 µM (active) | < 0.005 µM (active) | 0.0107 µM (active) | < 0.005 µM (active) | < 0.005 µM (active) | 0.00703 µM (active) | < 0.005 µM (active) | < 0.005 µM (active) | < 0.005 µM (active) | < 0.005 µM (active) | < 0.005 µM (active) | < 0.005 µM (active) | < 0.005 µM (active) | < 0.005 µM (active) | < 0.005 µM (active) | – | < 0.005 µM (active) | < 0.005 µM (active) | < 0.005 µM (active) | 0.0204 µM (active)
13 | N=c1oc2ccccc2cc1-c1nc2ccccc2[nH]1 | 15.4 µM (inactive) | 16.9 µM (inactive) | 43.9 µM (inactive) | 18.4 µM (inactive) | 18.2 µM (inactive) | 7.05 µM (inactive) | 53 µM (inactive) | 18.9 µM (inactive) | 30.8 µM (inactive) | 32.5 µM (inactive) | 17.3 µM (inactive) | 10.1 µM (inactive) | 24.9 µM (inactive) | – | 78 µM (inactive) | 44.3 µM (inactive) | 20.8 µM (inactive) | 13.6 µM (inactive) | > 100 µM (inactive) | 12.1 µM (inactive)
14 | Cc1c(F)c(N)c2c(=O)cc(-c3ccc(NC(=O)CN(C)C)c(F)c3)oc2c1F | 39.5 µM (inactive) | > 100 µM (inactive) | 2.45 µM (inactive) | 82.8 µM (inactive) | – | 18.4 µM (inactive) | – | 38 µM (inactive) | 32 µM (inactive) | 33 µM (inactive) | > 100 µM (inactive) | 15.5 µM (inactive) | > 100 µM (inactive) | 0.0456 µM (active) | 38.3 µM (inactive) | > 100 µM (inactive) | 53.5 µM (inactive) | > 100 µM (inactive) | > 100 µM (inactive) | 86.1 µM (inactive)
